Source: ChEMBL document CHEMBL3045281, “Design, synthesis, and biological evaluation of new 3-hydroxy-2-oxo-3-trifluoromethylindole as potential HIV-1 reverse transcriptase inhibitors” (Med Chem Res, 2006)

How the values were obtained:
[1] = Cytotoxicity against Chlorocebus aethiops (African green monkey) Vero cells after 72 hr by trypan blue assay; type: cell-based; settings: chlorocebus sabaeus
[2] = molecular target: Human immunodeficiency virus type 1 reverse transcriptase (Human immunodeficiency virus 1, UniProt Q72547); test: Inhibition of RNA-dependent DNA polymerase activity of Human immunodeficiency virus 1 recombinant reverse transcriptase expressed in Escherichia coli using poly(rA)oligo(dT) template primer after 30 min

| Structure (SMILES) | IC50 [2] [µM] | CC50 at 72 h [1] [µM] |
| --- | --- | --- |
| O=C1Nc2ccccc2C1(O)C(F)(F)F (stereo not given) | 6.07 | > 650 |
| O=C1Nc2ccc(Cl)cc2C1(O)C(F)(F)F (stereo not given) | 7.1 | > 700 |
| CC(=O)N1C(=O)C(O)(C(F)(F)F)c2cc(C)ccc21 (stereo not given) | 8.37 | > 650 |

The next compounds have a lower IC50 [2] than those just listed; values first:

| IC50 [2] [µM] | Structure (SMILES) | CC50 at 72 h [1] [µM] |
| --- | --- | --- |
| 3.61 | CN1C(=O)C(O)(C(F)(F)F)c2cc(Br)ccc21 (stereo not given) | > 250 |
| 3.41 | CC(=O)N1C(=O)C(O)(C(F)(F)F)c2cc(Cl)ccc21 (stereo not given) | > 360 |
